Laboratory results published in US9029518B2, “Method of extracting kaempferol-based antioxidants from Solenostemma arghel” (priority 2012, dated 2015).

How the values were obtained:
[1] = test system: carrageenan-induced rat paw edema; assay: Carrageenan-induced rat paw edema (anti-inflammatory); format: in vivo
Source text: The total alcohol (ethanol) extract was given at doses of 0.25, 0.5 and 1 g/kg, respectively, and fractions were given in doses of 0.25 g/kg. […]

[2] = DPPH free radical scavenging activity; format: biochemical
Method: The antipyretic activity was estimated using Brewer's yeast-induced hyperpyrexia in rats. Both water and total alcohol extracts were separately given orally at doses of 0.25, 0.5 and 1.0 g/kg, respectively. The antioxidant activity was evaluated using 2,2-diphenyl-1-picrylhydrazyl (DPPH) free radical scavenging activity. A 0.05 ml sample of the test compound was added to a methanol solution of DPPH (100 μM 2.95 ml) dissolved in methanol. The compound was added at different concentrations of 2, 4, 6, 8 and 10 mg/ml, respectively, as well as for water, and the total ethanol extracts and fractions. Concentrations of 1, 2, 3, 4 and 5 mg/ml were used for C1 and C2. Equal amounts of methanol were added to the control. Absorbance was recorded at 517 nm at regular intervals of 15 s for 5 min. Ascorbic acid (100 μM) was used as a standard.
The results are shown in Table 4 below, and in FIGS. 4A and 4B.
With regard to antioxidant activity (in vitro), all extracts were tested at concentrations of 2, 4, 6, 8 and 10 mg/ml.

[3] = test system: acetic acid-induced writhes in mice; assay: Acetic acid-induced writhes in mice (peripheral analgesic activity); format: in vivo
[4] = test system: response of mice to hot plate thermal stimulation; assay: Hot plate test (central analgesic activity); format: in vivo; conditions: for Latency (mean latency time until licking or jumping): time 0 min, hot plate 55° C.; for central analgesic activity compared with methamizol 0.05 g/kg: total ethanol extract 0.25, 0.5 and 1 g/kg, fractions 0.25 g/kg, C1 and C2 0.1 g/kg, I.P.
Method: The total alcoholic extract was given at doses of 0.25, 0.5 and 1.0 g/kg, respectively, fractions were given at doses of 0.25 g/kg, and compounds were given at doses of 0.1 g/kg. The effect of the alcoholic extract, fractions and isolated compounds are shown in FIGS. 3A, 3B and 3C, respectively, and given below in Table 3.
FIGS. 3A, 3B and 3C graphically illustrate the mean latency time (in seconds) until licking or jumping. This was recorded with mice being placed in a glass beaker, which was placed on a hot plate, which was maintained at 55° C. Measurements were taken 20, 60 and 90 minutes, respectively, after intraperitoneal injection of fractions (0.25 g/kg) and the isolated compounds (0.1 g/kg) from Solenostemma arghel, compared with the control group and methamizol.
This effect started after 20 min. and persisted for 90 min. after I.P. administration of the extracts.

Which results are given for `O=C(O)Cc1ccccc1Nc1c(Cl)cccc1Cl` [Diclofenac sodium, diclofenac sodium, reference compound]?
% inhibition of control ([1]; dose 0.03 g/kg, time 0 h (so in the source)): 30.24%; % inhibition of control ([1]; dose 0.03 g/kg, time 2 h): 48.42%; % inhibition of control ([1]; dose 0.03 g/kg, time 3 h): 54.69%

Which results are given for `C[C@H]1O[C@H](OC[C@H]2O[C@@H](Oc3c(-c4ccc(O)cc4)oc4cc(O)cc(O)c4c3=O)[C@H](O)[C@@H](O)[C@@H]2O)[C@@H](O)[C@@H](O)[C@@H]1O` [C2, kaempferol-3-rutinoside]?
Radical scavenging activity (%) ± S.D. ([2]; concentration 1 mg/ml): 30.28 ± 1.10%; Radical scavenging activity (%) ± S.D. ([2]; concentration 2 mg/ml): 39.64 ± 0.88%; Radical scavenging activity (%) ± S.D. ([2]; concentration 3 mg/ml): 65.30 ± 0.98%; Radical scavenging activity (%) ± S.D. ([2]; concentration 4 mg/ml): 70.12 ± 1.01%; Radical scavenging activity (%) ± S.D. ([2]; concentration 5 mg/ml): 86.50%; % Protection of control ([3]; dose 0.1 g/kg oral): 68.90%; % inhibition of control ([1]; dose 0.1 g/kg oral, time 1 h): 62.50%; % inhibition of control ([1]; dose 0.1 g/kg oral, time 2 h): 70.02%; % inhibition of control ([1]; dose 0.1 g/kg oral, time 3 h): 53.60%; Latency (mean latency time until licking or jumping) ([4]; dose 0.1 g/kg I.P.): 5.80 ± 0.79 s; central analgesic activity compared with methamizol 0.05 g/kg [4]: significantly (P<0.05) greater than that of methamizol

Which “scavenging activity towards DPPH radicals” value ([2]; concentration 100 μM (standard)) does the source give for `O=C1O[C@H]([C@@H](O)CO)C(O)=C1O` [ascorbic acid, reference compound] here?
Its value is 87.8%.

What does the source list for `O=c1c(O[C@@H]2O[C@H](CO)[C@@H](O)[C@H](O)[C@H]2O)c(-c2ccc(O[C@@H]3O[C@H](CO)[C@@H](O)[C@H](O)[C@H]3O)cc2)oc2cc(O)cc(O)c12` [C1, kaempferol-3, 4′-diglucoside]?
Radical scavenging activity (%) ± S.D. ([2]; concentration 1 mg/ml): 26.51 ± 1.01%; Radical scavenging activity (%) ± S.D. ([2]; concentration 2 mg/ml): 37.94 ± 0.98%; Radical scavenging activity (%) ± S.D. ([2]; concentration 3 mg/ml): 52.63 ± 0.99%; Radical scavenging activity (%) ± S.D. ([2]; concentration 4 mg/ml): 67.72 ± 1.12%; Radical scavenging activity (%) ± S.D. ([2]; concentration 5 mg/ml): 83.40%; % Protection of control ([3]; dose 0.1 g/kg oral): 59.02%; % inhibition of control ([1]; dose 0.1 g/kg oral, time 1 h): 59.06%; % inhibition of control ([1]; dose 0.1 g/kg oral, time 2 h): 71.31%; % inhibition of control ([1]; dose 0.1 g/kg oral, time 3 h): 53.93%; Latency (mean latency time until licking or jumping) ([4]; dose 0.1 g/kg I.P.): 5.50 ± 0.85 s; central analgesic activity compared with methamizol 0.05 g/kg [4]: significantly (P<0.05) greater than that of methamizol

For `Cc1c(N(C)CS(=O)(=O)[O-])c(=O)n(-c2ccccc2)n1C.[Na+]` [Methamizol, methamizol, reference compound], which “% Protection of control” value ([3]; dose 0.05 g/kg) is on record?
Its value is 52.32%.

And the “Latency (mean latency time until licking or jumping)” value ([4]; dose 0.05 g/kg)?
The value was 5.26 ± 0.94 s.
